Molecules are shown by their SMILES.

This assay concerns the target human lung tryptase. The experiment in a line: β-Tryptase In-Vitro Enzyme Assay. The format is biochemical. The following applies: human lung tryptase 1 nM, substrate H-D-HHT-Ala-Arg-pNa 500 μM, pH 7.4, room temperature. As for the experimental part: The β-tryptase assay was conducted with human lung tryptase (Cortex Biochem #CP3033) in an aqueous buffer (10 mM Tris, 10 mM Hepes, 150 mM NaCl, 0.1% PEG 8000, pH 7.4) using the chromogenic substrate H-D-HHT-Ala-Arg-pNa. […] Percent inhibition was calculated by comparing the initial reaction velocity of samples without inhibitor to those with inhibitor. The initial reaction velocities were analyzed using Microsoft Excel.
The molecule `COc1ccccc1/C=C\C(=O)N1CCC2(CC1)COc1ccc(CN)cc12` [Cpd 183, (Z)-1-(2-methoxy-phenylethenyl)carbonyl-5′-aminomethyl-spiro[piperidine-4,3′-(2H)-benzo[b]furan]] came in with an IC50 of 5800 nM.

In the case of `NCc1ccc2c(c1)C1(CCN(C(=O)c3cc(Br)c(Br)s3)CC1)CO2` [Cpd 278, 1-(4,5-dibromo-thien-2-yl)carbonyl-5′-aminomethyl-spiro[piperidine-4,3′-(2H)-benzo[b]furan]], the half-maximal inhibitory concentration (IC50) is 12 nM.

`NCc1ccc2c(c1)C1(CCN(C(=O)/C=C/c3ccsc3)CC1)CO2` [Cpd 255, (E)-1-(thien-3-ylethenyl)carbonyl-5′-aminomethyl-spiro[piperidine-4,3′-(2H)-benzo[b]furan]]: the IC50 was 580 nM.

In the case of `N=C(NO)c1ccc2c(c1)C1(CCN(C(=O)c3ccc(C#Cc4ccccc4)o3)CC1)CO2` [Cpd 306, 1-(5-phenylethynyl-furan-2-yl)carbonyl-5′-[hydroxyamino(imino)methyl]-spiro[piperidine-4,3′-(2H)-benzo[b]furan]], half-maximal inhibition (IC50) was put at 71 nM.

Consider `CC(C)(C)c1ccc(/C=C/C(=O)N2CCC3(CC2)COc2ccc(CN)cc23)cc1` [Cpd 268, (E)-1-(4-tert-butyl-phenylethenyl)carbonyl-5′-aminomethyl-spiro[piperidine-4,3′-(2H)-benzo[b]furan]], for which the IC50 is 2900 nM.

Molecule `NCc1ccc2c(c1)C1(CCN(C(=O)/C=C/c3cccc(OCCc4ccccc4)c3)CC1)CO2` [Cpd 294, (E)-1-(3-phenethoxy-phenylethenyl)carbonyl-5′-aminomethyl-spiro[piperidine-4,3′-(2H)-benzo[b]furan]] gave a half-maximal inhibitory concentration (IC50) of 97 nM.

Molecule `Cc1cccc2c(C(=O)N3CCC4(CC3)COc3ccc(CN)cc34)c[nH]c12` [Cpd 249, 1-(7-methyl-indol-3-yl)carbonyl-5′-aminomethyl-spiro[piperidine-4,3′-(2H)-benzo[b]furan]] yielded an IC50 of 830 nM.

In turn, `Cc1ccc(-c2ccc(C(=O)N3CCC4(CC3)COc3ccc(CN)cc34)o2)cc1` [Cpd 131, 1-[5-(4-methyl-phenyl)-furan-2-yl]carbonyl-5′-aminomethyl-spiro[piperidine-4,3′-(2H)-benzo[b]furan]] returned a half-maximal inhibitory concentration (IC50) of 72 nM.

The molecule `CSc1sc(C(=O)N2CCC3(CC2)COc2ccc(CN)cc23)c2ccccc12` [Cpd 234, 1-(3-methylthio-benzo[c]thien-1-yl)carbonyl-5′-aminomethyl-spiro[piperidine-4,3′-(2H)-benzo[b]furan]] returned a half-maximal inhibitory concentration (IC50) of 9.5 nM.

`NCc1ccc2c(c1)C1(CCN(C(=O)c3ccc(F)c(Br)c3)CC1)CO2` [Cpd 31, 1-(3-bromo-4-fluoro-phenyl)carbonyl-5′-aminomethyl-spiro[piperidine-4,3′-(2H)-benzo[b]furan]] displayed an IC50 of 55 nM.

With `NCc1ccc2c(c1)C1(CCN(C(=O)/C=C/c3ccc4c(c3)OCO4)CC1)CO2` [Cpd 187, (E)-1-(benzodioxol-5-ylethenyl)carbonyl-5′-aminomethyl-spiro[piperidine-4,3′-(2H)-benzo[b]furan]], the IC50 turned out to be 790 nM.

Molecule `NCc1ccc2c(c1)C1(CCN(C(=O)c3ccc(C#Cc4ccccc4)o3)CC1)NC2=O` [Cpd 317, 1-(5-phenylethynyl-furan-2-yl)carbonyl-1′-oxo-5′-aminomethyl-spiro[piperidine-4,3′-1H-isoindole]] showed an IC50 of 7.3 nM.

The molecule `C[C@H]1CC[C@H](C(=O)N2CCC3(CC2)COc2ccc(CN)cc23)CC1` [Cpd 38, 1-(trans-4-methyl-cyclohexyl)carbonyl-5′-aminomethyl-spiro[piperidine-4,3′-(2H)-benzo[b]furan]] gave an IC50 of 650 nM.

As for `NCc1ccc2c(c1)C1(CCN(C(=O)c3ccc(Cl)c(Cl)c3)CC1)CO2` [Cpd 1, 1-(3,4-dichlorophenyl)carbonyl-5′-aminomethyl-spiro[piperidine-4,3′-(2H)-benzo[b]furan]], the concentration for half-maximal inhibition (IC50) was 31 nM.

On to `NCc1ccc2c(c1)C1(CCN(C(=O)c3ccc(C(F)(F)F)o3)CC1)CO2` [Cpd 22, 1-(5-trifluoromethyl-furan-2-yl)carbonyl-5′-aminomethyl-spiro[piperidine-4,3′-(2H)-benzo[b]furan]], for which the half-inhibitory concentration (IC50) amounted to 2100 nM.

The molecule `NCc1ccc2c(c1)C1(CCN(C(=O)c3cccc(Cl)c3)CC1)CO2` [Cpd 39, 1-(3-chloro-phenyl)carbonyl-5′-aminomethyl-spiro[piperidine-4,3′-(2H)-benzo[b]furan]] had an IC50 of 3700 nM.

Molecule `COc1ccccc1C#Cc1ccc(C(=O)N2CCC3(CC2)COc2ccc(CN)cc23)o1` [Cpd 173, 1-[5-(2-methoxy-phenylethynyl)-furan-2-yl]carbonyl-5′-aminomethyl-spiro[piperidine-4,3′-(2H)-benzo[b]furan]] registered an IC50 of 13 nM.

For `NCc1ccc2c(c1)C1(CCN(C(=O)/C=C/c3cccs3)CC1)CO2` [Cpd 254, (E)-1-(thien-2-ylethenyl)carbonyl-5′-aminomethyl-spiro[piperidine-4,3′-(2H)-benzo[b]furan]], the IC50 was 370 nM.

On to `NCc1ccc2c(c1)C1(CCN(C(=O)/C=C/c3cccc4ccccc34)CC1)CO2` [Cpd 188, (E)-1-(naphthalen-1-ylethenyl)carbonyl-5′-aminomethyl-spiro[piperidine-4,3′-(2H)-benzo[b]furan]], for which 130 nM corresponded to half-maximal inhibition (IC50).

`NCc1ccc2c(c1)C1(CCN(C(=O)c3csc(-c4cccnc4)n3)CC1)CO2` [Cpd 121, 1-(2-pyridin-3-yl-thiazol-4-yl)carbonyl-5′-aminomethyl-spiro[piperidine-4,3′-(2H)-benzo[b]furan]] gave a concentration for half-maximal inhibition (IC50) of 510 nM.

In the case of `NCc1ccc2c(c1)C1(CCN(C(=O)c3ccc(-c4ccccn4)s3)CC1)CO2` [Cpd 120, 1-(5-pyridin-2-yl-thien-2-yl)carbonyl-5′-aminomethyl-spiro[piperidine-4,3′-(2H)-benzo[b]furan]], the IC50 was determined as 130 nM.

The molecule `CCCOc1sc(C(=O)N2CCC3(CC2)CN(S(=O)(=O)O)c2ccc(CN)cc23)c(C)c1Br` [Cpd 346, 1-(3-methyl-4-bromo-5-propoxy-thien-2-yl)carbonyl-1′-hydroxysulfonyl-5′-aminomethyl-spiro[piperidine-4,3′-(2H)-indole]] came in with an IC50 of 40 nM.

`Cc1cc(C)nc(SCc2ccc(C(=O)N3CCC4(CC3)COc3ccc(CN)cc34)o2)n1` [Cpd 148, 1-[5-(4,6-dimethyl-pyrimidin-2-ylthiomethyl)-furan-2-yl]carbonyl-5′-aminomethyl-spiro[piperidine-4,3′-(2H)-benzo[b]furan]] returned a 50% inhibitory concentration (IC50) of 330 nM.

In turn, `NCc1ccc2c(c1)C1(CCN(C(=O)c3cncc(-c4cccs4)c3)CC1)CO2` [Cpd 143, 1-(5-thien-2-yl-pyridin-3-yl)carbonyl-5′-aminomethyl-spiro[piperidine-4,3′-(2H)-benzo[b]furan]] came in with a half-inhibitory concentration (IC50) of 56 nM.

In turn, `COC(=O)N1CC2(CCN(C(=O)c3ccc(C#Cc4ccccc4)o3)CC2)c2cc(CN)ccc21` [Cpd 323, 1-(5-phenylethynyl-furan-2-yl)carbonyl-1′-methoxycarbonyl-5′-aminomethyl-spiro[piperidine-4,3′-(2H)-indole]] displayed an IC50 of 110 nM.

Turning to `NCc1ccc2c(c1)C1(CCN(C(=O)Cc3ccc(Cl)c(Cl)c3)CC1)CO2` [Cpd 86, 1-(3,4-dichloro-benzyl)carbonyl-5′-aminomethyl-spiro[piperidine-4,3′-(2H)-benzo[b]furan]], 620 nM corresponded to half-maximal inhibition (IC50).

`COC(=O)c1cccc(C(=O)N2CC3(CCN(C(=O)c4ccc(C#Cc5ccccc5)o4)CC3)c3cc(CN)ccc32)c1` [Cpd 328, 1-(5-phenylethynyl-furan-2-yl)carbonyl-1′-(3-methoxycarbonyl-phenyl)carbonyl-5′-aminomethyl-spiro[piperidine-4,3′-(2H)-indole]] gave a concentration for half-maximal inhibition (IC50) of 290 nM.

Molecule `NCc1ccc2c(c1)C1(CCN(C(=O)/C=C/c3ccc4ccccc4c3)CC1)CO2` [Cpd 113, (E)-1-(naphthalene-2-ylethenyl)carbonyl-5′-aminomethyl-spiro[piperidine-4,3′-(2H)-benzo[b]furan]] came in with an IC50 of 130 nM.

For the molecule `NCc1ccc2c(c1)C1(CCN(C(=O)c3ccc(COc4cccc(Cl)c4)o3)CC1)CO2` [Cpd 134, 1-[5-(3-chloro-phenoxymethyl)-furan-2-yl]carbonyl-5′-aminomethyl-spiro[piperidine-4,3′-(2H)-benzo[b]furan]], it took 76 nM to reach half-maximal inhibition (IC50).

The molecule `NCc1ccc2c(c1)C1(CCN(C(=O)c3scc4c3CCCC4)CC1)CO2` [Cpd 203, 1-(5,6,7-trihydro-4H-benzo[c]thien-1-yl)carbonyl-5′-aminomethyl-spiro[piperidine-4,3′-(2H)-benzo[b]furan]] yielded an IC50 of 280 nM.

Regarding `NCc1ccc2c(c1)C1(CCN(C(=O)c3ccc(C#Cc4cccc5ccccc45)o3)CC1)CO2` [Cpd 177, 1-(5-naphthalen-1-ylethynyl-furan-2-yl)carbonyl-5′-aminomethyl-spiro[piperidine-4,3′-(2H)-benzo[b]furan]], the IC50 stood at 26 nM.

Turning to `NCc1ccc2c(c1)C1(CCN(C(=O)c3cc(-c4ccc(Cl)cc4)cs3)CC1)CO2` [Cpd 357, 1-[4-(4-chloro-phenyl)-thien-2-yl]carbonyl-5′-aminomethyl-spiro[piperidine-4,3′-(2H)-benzo[b]furan]], inhibition was half-maximal at 280 nM (IC50).

On to `NCc1ccc2c(c1)C1(CCN(C(=O)/C=C/c3cccc(O)c3)CC1)CO2` [Cpd 265, (E)-1-(3-hydroxy-phenylethenyl)carbonyl-5′-aminomethyl-spiro[piperidine-4,3′-(2H)-benzo[b]furan]], for which the IC50 was determined as 870 nM.

As to `NCc1ccc2c(c1)C1(CCN(C(=O)c3ccc(C#Cc4ccccc4)o3)CC1)CN2S(=O)(=O)O` [Cpd 327, 1-(5-phenylethynyl-furan-2-yl)carbonyl-1′-hydroxysulfonyl-5′-aminomethyl-spiro[piperidine-4,3′-(2H)-indole]], it took 18 nM to reach half-maximal inhibition (IC50).

Regarding `Cc1nc(-c2ccccc2)sc1C(=O)N1CCC2(CC1)COc1ccc(CN)cc12` [Cpd 123, 1-(2-phenyl-4-methyl-thiazol-5-yl)carbonyl-5′-aminomethyl-spiro[piperidine-4,3′-(2H)-benzo[b]furan]], the half-maximal inhibitory concentration (IC50) is 690 nM.

What is called IC50 is the concentration that gives 50% inhibition. A high value points to a need for much substance.

Source of the values: patent US8158792B2, “Spiropiperidines for use as tryptase inhibitors” (Janssen Pharmaceutica N.V., priority 2007, dated 2012).
